Measurements reported in ChEMBL document CHEMBL3045309, “Synthesis and cardiovascular activity of difluro-substituted hexahydroquinoline” (2008).

What was measured:
Thoracic artery = assay: Inhibition of potassium chloride-induced contraction in Rattus norvegicus albino (rat) thoracic artery at 10^-5 mol/l after 10 min; format: functional
Ileum = assay: Inhibition of barium chloride-induced contraction inRattus norvegicus albino (rat) ileum at 10^-5 mol/l after 10 min; format: functional

Row | Structure (SMILES) | inhibition at 10 µM (Thoracic artery) [%] | inhibition at 10 µM (Ileum) [%]
1 | COC(=O)C1=C(C)NC2=C(C(=O)C(C)(C)CC2)C1c1c(F)cccc1F (stereo unspecified) | 23.6 | 79.4
2 | CCOC(=O)C1=C(C)NC2=C(C(=O)C(C)(C)CC2)C1c1cc(F)ccc1F (stereo unspecified) | 21.4 | 86.8
3 | COC(=O)C1=C(C)NC2=C(C(=O)CC(C)(C)C2)C1c1c(F)cccc1F (stereo unspecified) |  | 74.6
4 | CCN(CC)C(=O)C1=C(C)NC2=C(C(=O)C(C)(C)CC2)C1c1cccc(F)c1F (stereo unspecified) | 37 | 54.2
5 | CCN(CC)C(=O)C1=C(C)NC2=C(C(=O)CC(C)(C)C2)C1c1cccc(F)c1F (stereo unspecified) | 31.5 | 51.3
6 | COC(=O)C1=C(C)NC(C)=C(C(=O)OCCN(C)Cc2ccccc2)C1c1cccc([N+](=O)[O-])c1 (stereo unspecified) [NICARDIPINE] | 15.9 | 70
